This is an account of results in US5468734A, “Prophylactic and remedial preparation for diseases attendant on hyperglycemia, and wholesome food” (Godo Shusei Co., Ltd., priority 1992, dated 1995).

The target of experiment [1] is T1, sucrase (carbohydrase derived from rabbit small intestine mucous membrane) (Oryctolagus cuniculus, UniProt P07768).
T1 construct: suspended again in a 10 mM potassium phosphate buffer (pH: 7.0), thereby obtaining a crude enzyme suspension; from tissue; host or cells: rabbit small intestine (title: mucous membrane), homogenate, 60,000×g precipitate
Kind of experiment: Action to inhibit the hydrolytic activity of homogenate prepared from rabbit small intestine mucous membrane: sucrase inhibition. In kind it is biochemical. The settings on record: for inhibition at 250 µg/mL / inhibition at 500 µg/mL / inhibition at 1000 µg/mL / inhibition at 2000 µg/mL: 0.25 h, substrate sucrose 20 mM, pH 6.8, 37° C., 15 minutes, read-out: Sucrase inhibition rate; for inhibition at 250 µg/mL: 25 mg/dl; for inhibition at 500 µg/mL: 50 mg/dl; for inhibition at 1000 µg/mL: 100 mg/dl; for inhibition at 2000 µg/mL: 200 mg/dl. As to the method:
(§1) (Action to inhibit the hydrolytic activity of homogenate prepared from rabbit small intestine mucous membrane to carbohydrate)
(§2) A native kind of white rabbits (weight: 3.0-3.5 kg) were sacrificed by exsanguination to take out their small intestines.
(§3) After freezing and thawing the small intestines thus taken out, they were homogenized in a 5 mM EDTA buffer (pH: 7.0) and subjected to centrifugation for 60 minutes at 60,000×g. Precipitate thus formed was collected and suspended again in a 10 mM potassium phosphate buffer (pH: 7.0), thereby obtaining a crude enzyme suspension.
(§4) Sucrose (20 mM) and maltose (20 mM) were used as substrates.
(§5) Each reaction mixture was formulated so as to contain 350 microliters of a 100 mM maleate buffer (pH: 6.8), 100 microliters of a substrate solution, 50 microliters of the crude enzyme suspension and 50 microliters of a test solution. Substances to be tested were separately dissolved in a maleate buffer (pH: 6.8) before use.
(§6) Respective reactions were conducted for 15 minutes at 37° C.

Experiment [2] deals with rise in blood sugar. Put plainly: Action to depress the rise in blood sugar after sucrose loading to mice. In kind it is in vivo, ICR male mice. The settings on record: for Rise in blood sugar / action to depress the rise in blood sugar due to sucrose loading (in words): sucrose 1 g/kg; for Rise in blood sugar: average ± standard error; for action to depress the rise in blood sugar due to sucrose loading (in words): orally 25, 50 and 100 mg/kg (L-arabinose, D-xylose) or 100 mg/kg (others); for action to depress the rise in blood sugar for sucrose or starch loading (in words): summary statement.
Description: (Action to depress the rise in blood sugar after carbohydrate loading)
ICR male mice (weight 30-35 g) were used in proportions of 5 mice per group.
After causing the mice to fast, sucrose or starch was orally administered in a proportion of 1 g/kg to the mice of each group, and at the same time substances to be tested were orally given to mice of their corresponding groups.
Blood was collected from the retroorbital sinus of each mouse before carbohydrate loading and upon elapsed times of 30 minutes, 60 minutes and 120 minutes after the loading to determine the concentration of glucose in the blood plasma by the glucose oxidase method.

Experiment [3] deals with maltase (carbohydrase derived from rabbit small intestine mucous membrane). Put plainly: Action to inhibit the hydrolytic activity of homogenate prepared from rabbit small intestine mucous membrane: maltase inhibition. In kind it is biochemical. The note with it: for Maltase inhibition rate: substrate maltose 20 mM, pH 6.8, 37° C., 15 minutes. As to the method:
as §1, §2, §3, §4, §5, §6

Where [4] appears, read: dose 100 mg/kg oral, after 30 min.
Where [5] appears, read: dose 100 mg/kg oral, after 60 min.
Setting [6] is: dose 100 mg/kg oral, after 120 min.

Molecules are shown by their SMILES.

T1 sequence (P07768 1008-1827 limits assumed): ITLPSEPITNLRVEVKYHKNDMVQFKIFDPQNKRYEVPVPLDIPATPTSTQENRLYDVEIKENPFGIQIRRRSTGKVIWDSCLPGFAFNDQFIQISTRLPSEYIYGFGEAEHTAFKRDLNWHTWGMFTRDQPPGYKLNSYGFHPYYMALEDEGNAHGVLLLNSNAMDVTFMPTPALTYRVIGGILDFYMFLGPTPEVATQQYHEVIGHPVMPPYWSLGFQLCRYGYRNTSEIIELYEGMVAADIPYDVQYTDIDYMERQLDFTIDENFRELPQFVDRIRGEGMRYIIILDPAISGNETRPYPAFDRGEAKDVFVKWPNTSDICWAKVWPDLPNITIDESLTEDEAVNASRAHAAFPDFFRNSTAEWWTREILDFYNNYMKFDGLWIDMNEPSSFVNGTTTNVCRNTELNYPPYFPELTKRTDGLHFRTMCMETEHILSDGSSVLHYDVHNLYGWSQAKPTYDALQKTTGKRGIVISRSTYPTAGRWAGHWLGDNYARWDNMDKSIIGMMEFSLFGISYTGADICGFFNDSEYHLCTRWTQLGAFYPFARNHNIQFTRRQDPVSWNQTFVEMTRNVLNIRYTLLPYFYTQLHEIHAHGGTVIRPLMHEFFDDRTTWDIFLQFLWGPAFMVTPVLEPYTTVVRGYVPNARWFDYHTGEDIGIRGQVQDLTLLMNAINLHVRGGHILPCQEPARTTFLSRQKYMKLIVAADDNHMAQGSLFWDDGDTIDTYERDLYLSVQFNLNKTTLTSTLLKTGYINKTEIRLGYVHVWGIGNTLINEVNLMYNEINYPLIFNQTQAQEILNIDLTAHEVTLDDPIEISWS
T1 sequence (P07768 2-1007 partner limits assumed): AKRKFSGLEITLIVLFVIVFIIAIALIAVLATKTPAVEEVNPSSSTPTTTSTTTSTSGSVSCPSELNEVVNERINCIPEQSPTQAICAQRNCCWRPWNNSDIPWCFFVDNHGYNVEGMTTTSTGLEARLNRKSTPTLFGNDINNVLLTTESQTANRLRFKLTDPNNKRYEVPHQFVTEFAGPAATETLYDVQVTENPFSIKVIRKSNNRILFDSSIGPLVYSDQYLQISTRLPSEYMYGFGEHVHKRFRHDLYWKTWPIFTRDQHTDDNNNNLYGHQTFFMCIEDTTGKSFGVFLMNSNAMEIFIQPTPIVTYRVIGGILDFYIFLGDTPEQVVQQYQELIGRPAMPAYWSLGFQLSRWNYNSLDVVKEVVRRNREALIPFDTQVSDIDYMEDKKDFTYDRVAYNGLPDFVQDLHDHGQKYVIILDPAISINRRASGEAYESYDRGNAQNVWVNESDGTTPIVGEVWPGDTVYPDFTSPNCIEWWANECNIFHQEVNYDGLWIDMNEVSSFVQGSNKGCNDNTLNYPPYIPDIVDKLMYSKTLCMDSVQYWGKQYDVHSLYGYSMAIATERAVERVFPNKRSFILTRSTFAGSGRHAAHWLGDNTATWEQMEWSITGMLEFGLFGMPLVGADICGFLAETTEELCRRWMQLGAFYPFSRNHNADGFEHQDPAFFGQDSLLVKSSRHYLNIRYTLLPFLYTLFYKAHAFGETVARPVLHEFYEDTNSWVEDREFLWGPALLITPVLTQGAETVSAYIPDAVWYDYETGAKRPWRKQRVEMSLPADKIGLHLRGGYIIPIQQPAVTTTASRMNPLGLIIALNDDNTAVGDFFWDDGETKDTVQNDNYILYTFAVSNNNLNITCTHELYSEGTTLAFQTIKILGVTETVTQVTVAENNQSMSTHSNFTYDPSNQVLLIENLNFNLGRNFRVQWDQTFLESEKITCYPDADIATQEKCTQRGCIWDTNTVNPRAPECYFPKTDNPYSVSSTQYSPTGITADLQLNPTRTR

For `O=C(CO)[C@@H](O)[C@@H](O)[C@H](O)CO` [D-Tagatose, D-tagatose], in experiment [1], the “sucrase-inhibiting action (in words)” value is listed as “strong sucrase-inhibiting action”, the inhibition at 250 µg/mL is 8.9%, the inhibition at 500 µg/mL is 15.7% and the inhibition at 1000 µg/mL is 30%. In experiment [1], the inhibition at 2000 µg/mL worked out at 36.6%. The “Rise in blood sugar” value in experiment [2] (setting [4]) is 60.7 Δmg/dl. Further, the “Rise in blood sugar” value in experiment [2] (setting [5]) was 44.4 Δmg/dl. Further, the “Rise in blood sugar” value in experiment [2] (setting [6]) was 26.3 Δmg/dl. Moreover, in experiment [2], the “action to depress the rise in blood sugar due to sucrose loading (in words)” value (from here on “action … to sucrose loading (in words)”) was “significantly depressed” and the “action to depress the rise in blood sugar for sucrose or starch loading (in words)” value is listed as “effective action to depress the rise in blood sugar”. Moreover, the “maltase-inhibiting action (in words)” value in experiment [3] is “strong sucrase-inhibiting action and maltase-inhibiting action”. In experiment [3] (25 mg/dl), this compound had a Maltase inhibition rate of 12.5%. This compound yielded a Maltase inhibition rate in experiment [3] (50 mg/dl) of 17.7%. The same compound had a Maltase inhibition rate in experiment [3] (100 mg/dl) of 30.3%. In experiment [3] (200 mg/dl), this compound displayed a Maltase inhibition rate of 33.9%.

Consider `O=C[C@H](O)[C@@H](O)[C@H](O)CO` [D-Xylose, D-xylose], for which the “sucrase-inhibiting action (in words)” value in experiment [1] is reported as “strong sucrase-inhibiting action”. The inhibition at 250 µg/mL in experiment [1] was found to be 28.5%. Also, the inhibition at 500 µg/mL in experiment [1] turned out to be 35.5%. Besides, the inhibition at 1000 µg/mL in experiment [1] came out at 49.5%. In addition, the inhibition at 2000 µg/mL in experiment [1] stood at 59.8%. In addition, the “Rise in blood sugar” value in experiment [2] (dose 25 mg/kg oral, after 30 min.) was 76.3 Δmg/dl; in experiment [2] (dose 25 mg/kg oral, after 60 min.) it was 55.4 Δmg/dl; in experiment [2] (dose 50 mg/kg oral, after 30 min.) it was 62.5 Δmg/dl; in experiment [2] (dose 50 mg/kg oral, after 60 min.), 47.3 Δmg/dl; in experiment [2] (dose 50 mg/kg oral, after 120 min.), 24.0 Δmg/dl; in experiment [2] (setting [4]), 38.2 Δmg/dl. For the same compound, the entries for the “Rise in blood sugar” value in experiment [2] (setting [5]) and in experiment [2] (setting [6]) were 45.2 Δmg/dl and 23.4 Δmg/dl, respectively. In addition, in experiment [2], the “action … to sucrose loading (in words)” value is on record as “depressed in dependence on the dose”. In addition, in experiment [2], the “action to depress the rise in blood sugar for sucrose or starch loading (in words)” value is “effective action to depress the rise in blood sugar”. For the same compound, the “maltase-inhibiting action (in words)” value in experiment [3] was “strong sucrase-inhibiting action and maltase-inhibiting action”. Moreover, the Maltase inhibition rate in experiment [3] (25 mg/dl) amounted to 29.2%; in experiment [3] (50 mg/dl), 36.4%; in experiment [3] (100 mg/dl) it was 44.3%; in experiment [3] (200 mg/dl), 53.1%.

As to `O=C(CO)[C@@H](O)[C@H](O)CO` [D-Xylulose, D-xylulose], in experiment [1], the “sucrase-inhibiting action (in words)” value was “inhibiting actions second to these” and the inhibition at 2000 µg/mL is 19.9%. For the same compound, in experiment [2] (setting [4]), the “Rise in blood sugar” value is 67.3 Δmg/dl. Further, the “Rise in blood sugar” value in experiment [2] (setting [5]) was 59.7 Δmg/dl. Further, the “Rise in blood sugar” value in experiment [2] (setting [6]) is recorded as 27.5 Δmg/dl. Also, in experiment [2], the “action … to sucrose loading (in words)” value was “significantly depressed” and the “action to depress the rise in blood sugar for sucrose or starch loading (in words)” value is listed as “effective action to depress the rise in blood sugar”. In addition, the “maltase-inhibiting action (in words)” value in experiment [3] was “inhibiting actions second to these”. Moreover, the Maltase inhibition rate in experiment [3] (200 mg/dl) came to 11.9%.

Consider `C[C@H](O)[C@@H](O)[C@@H](O)[C@H](O)C=O` [L-Fucose, L-fucose], for which, in experiment [1], the “sucrase-inhibiting action (in words)” value was “strong sucrase-inhibiting action”. Also, the inhibition at 250 µg/mL in experiment [1] came out at 11.6%. The inhibition at 500 µg/mL in experiment [1] was 16.2%. The inhibition at 1000 µg/mL in experiment [1] was determined as 32.8%. Further, the inhibition at 2000 µg/mL in experiment [1] was found to be 30.7%. The “Rise in blood sugar” value is listed as 62.0 Δmg/dl in experiment [2] (setting [4]), 44.4 Δmg/dl in experiment [2] (setting [5]) and 26.3 Δmg/dl in experiment [2] (setting [6]). For the same compound, the “action … to sucrose loading (in words)” value in experiment [2] is on record as “significantly depressed”. Besides, in experiment [2], the “action to depress the rise in blood sugar for sucrose or starch loading (in words)” value is reported as “effective action to depress the rise in blood sugar”. Besides, the “maltase-inhibiting action (in words)” value in experiment [3] is “strong sucrase-inhibiting action and maltase-inhibiting action”. Also, the Maltase inhibition rate in experiment [3] (25 mg/dl) turned out to be 16.4%; in experiment [3] (50 mg/dl) it was 18.4%; in experiment [3] (100 mg/dl), 24.8%; in experiment [3] (200 mg/dl), 31.0%.

On to `O=C[C@@H](O)[C@H](O)[C@@H](O)CO` [L-Xylose, L-xylose], for which, in experiment [1], the “sucrase-inhibiting action (in words)” value was “inhibiting actions second to these”, the inhibition at 500 µg/mL amounted to 8%, the inhibition at 1000 µg/mL stood at 11.9% and the inhibition at 2000 µg/mL was 24.5%. For the same compound, the “Rise in blood sugar” value in experiment [2] (setting [4]) is recorded as 66.3 Δmg/dl. For the same compound, in experiment [2] (setting [5]), the “Rise in blood sugar” value is 53.2 Δmg/dl. In experiment [2], the “action … to sucrose loading (in words)” value was “significantly depressed” and the “action to depress the rise in blood sugar for sucrose or starch loading (in words)” value was “effective action to depress the rise in blood sugar”. In addition, in experiment [3], the “maltase-inhibiting action (in words)” value is “inhibiting actions second to these”. For the same compound, in experiment [3] (200 mg/dl), the Maltase inhibition rate is reported as 19.4%.

One may read the inhibition as the percentage by which the read-out fell short of the control.
